# Test system: GluI and GluII in Jurkat (T lymphocyte) cells
# Test: Free oligosaccharide (FOS) assay in Jurkat cells
# Type: cell-based, human
# Conditions: 48 h, 50 µm
# Method: 5 Cell and Virus Culture and Assays
# 5.1 Culture of Cell Lines
# The human hepatoma cell line Huh7.5 (Apath, LLC) was cultured in Dulbecco’s modiﬁed Eagle medium (DMEM) with Glutamax (Gibco) supplemented with 100 µg mL−1 strepto-mycin (Sigma), 100 U mL−1 penicillin (Sigma), 100 µm MEM non-essential amino acids (Gibco) and 10% (volume/volume, v/v) heat-inactivated (56 ◦C, 30 min) fetal calf serum (FCS, Seralab). The human monocytic cell line HL60 (ATCC), human T lymphocyte cell line Jurkat (ATCC), and human B lymphocyte cell line Raji (ATCC) were each maintained in RPMI 1640 media with Glutamax (Gibco) supplemented with 100 µg mL−1 streptomycin, 100 U mL−1 penicillin and 10% (v/v) FCS. […]
# Cell viability was measured using the CellTiter 96 R© AQueous One Solution Cell Prolifera-tion MTA (3-(4,5-dimethylthiazol-2-yl)-5-(3-carboxymethoxyphenyl)-2-(4-sulfophenyl)-2H - […]
# After a further one to two hour incubation, the absorbance at 490 nm was measured on a Molecular Devices SpectraMax M5 microplate reader. […]
# Absorbances were averaged across replicates, and corrected for background by subtracting the value for media-only wells. Each drug treatment was then evaluated as a percentage of untreated cells. […]
# FOS analysis was carried out as described previously. […] Before purifying the FOS, each sample was analyzed for protein content using the modiﬁed Bradford assay. […]
smiles,measurement,setting,value
"Cc1c(C)c2c(c(C)c1OCCCCCN1CC(O)C(O)C(O)C1CO)CCC(C)(CCCC(C)CCCC(C)CCCC(C)C)O2 (centres unmarked) [Compound 4, 5′-tocopheroxypentyl-DNJ]",glucosylated free oligosaccharides (FOS) observed after treatment,,not in Jurkat
same,glucosylated free oligosaccharides (FOS) observed after treatment,listed as ToP-DNJ 4,no glucosylated FOS were detected

# — article PMC5824344 (ACS Chemical Biology, 2017)
